Data set [1] deals with Salmonella typhimurium. Nature of the data set: Mutagenicity in Salmonella typhimurium TA98 at 0.06 to 5 ug/plate after 1 hr by Ames test in presence of S9 fraction. The data set is classed as toxicity, organism-based. The following applies: salmonella enterica subsp. enterica serovar typhimurium, s9, 1 h. A general note: In the Ames test, an excess of revertant colonies over the control signals mutagenicity.

Data set [2] deals with Salmonella typhimurium. Nature of the data set: Mutagenicity in Salmonella typhimurium TA98 at 0.06 to 5 ug/plate after 1 hr by Ames test in absence of S9 fraction. The following applies: salmonella enterica subsp. enterica serovar typhimurium. It counts as toxicity, organism-based.
A short description of data set [3]: Selectivity index, ratio of IC50 for mouse J774 cells to IC50 for epimastigote form of Trypanosoma cruzi Tulahuen 2. The settings on record: read-out: Ratio IC50. The data set is classed as toxicity, cell-based.
The test system of another data set is J774. Nature of the data set: Cytotoxicity against mouse J774 cells assessed as cell viability after 48 hrs by MTT assay. It counts as cell-based. The following applies: J774, 48 h.
The test system of data set [4] is Trypanosoma cruzi. In words: Ratio of nifurtimox IC50 to compound IC50 for epimastigote form of Trypanosoma cruzi Tulahuen 2. The data set is classed as functional.
In data set [5] the test system is Trypanosoma cruzi. Nature of the data set: Antichagasic activity against epimastigote form of Trypanosoma cruzi Tulahuen 2 assessed as parasite growth inhibition measured on day 5. The data set is classed as functional, organism-based. The following applies: Tulahuen 2, 120 h.
Data set [6] concerns Trypanosoma cruzi. Nature of the data set: Antichagasic activity against epimastigote form of Trypanosoma cruzi Tulahuen 2 assessed as parasite growth inhibition at 25 uM measured on day 5 relative to control. The following applies: Tulahuen 2, 120 h, read-out: GI. It counts as functional.
For data set [7], the system named is Salmonella typhimurium. In words: Mutagenicity in Salmonella typhimurium TA98 at 0.06 to 12.5 ug/plate after 1 hr by Ames test in presence of S9 fraction. The following applies: salmonella enterica subsp. enterica serovar typhimurium, s9, 1 h. It counts as toxicity, organism-based.
For data set [8], the system named is Salmonella typhimurium. Nature of the data set: Mutagenicity in Salmonella typhimurium TA98 at 0.06 to 12.5 ug/plate after 1 hr by Ames test in absence of S9 fraction. It counts as toxicity, organism-based. The following applies: salmonella enterica subsp. enterica serovar typhimurium.
Data set [9] concerns Salmonella typhimurium. In words: Mutagenicity in Salmonella typhimurium TA98 at 0.3 to 25 ug/plate after 1 hr by Ames test in presence of S9 fraction. It counts as toxicity, organism-based. The settings on record: salmonella enterica subsp. enterica serovar typhimurium, s9, 1 h.
The subject of data set [10] is Salmonella typhimurium. In words: Mutagenicity in Salmonella typhimurium TA98 at 0.3 to 25 ug/plate after 1 hr by Ames test in absence of S9 fraction. The data set is classed as toxicity, organism-based. The settings on record: salmonella enterica subsp. enterica serovar typhimurium.
In data set [11] the test system is Salmonella typhimurium. In words: Mutagenicity in Salmonella typhimurium TA98 at 0.61 to 50 ug/plate after 1 hr by Ames test in presence of S9 fraction. The data set is classed as toxicity, organism-based. The following applies: salmonella enterica subsp. enterica serovar typhimurium, s9, 1 h.
In data set [12] the test system is Salmonella typhimurium. Nature of the data set: Mutagenicity in Salmonella typhimurium TA98 at 0.61 to 50 ug/plate after 1 hr by Ames test in absence of S9 fraction. It counts as toxicity, organism-based. The following applies: salmonella enterica subsp. enterica serovar typhimurium.
Data set [13] has as its system Salmonella typhimurium. In words: Mutagenicity in Salmonella typhimurium TA98 at 1.2 X 10^-3 to 5 ug/plate after 1 hr by Ames test in presence of S9 fraction. The data set is classed as toxicity, organism-based. The settings on record: salmonella enterica subsp. enterica serovar typhimurium, s9, 1 h.
Data set [14] deals with Salmonella typhimurium. Nature of the data set: Mutagenicity in Salmonella typhimurium TA98 at 1.2 X 10^-3 to 5 ug/plate after 1 hr by Ames test in absence of S9 fraction. The following applies: salmonella enterica subsp. enterica serovar typhimurium. The data set is classed as toxicity, organism-based.
In data set [15] the test system is Salmonella typhimurium. In words: Mutagenicity in Salmonella typhimurium TA98 at 0.012 to 1 ug/plate after 1 hr by Ames test in presence of S9 fraction. The following applies: salmonella enterica subsp. enterica serovar typhimurium, s9, 1 h. It counts as toxicity, organism-based.
The test system of data set [16] is Salmonella typhimurium. In words: Mutagenicity in Salmonella typhimurium TA98 at 0.012 to 1 ug/plate after 1 hr by Ames test in absence of S9 fraction. The data set is classed as toxicity, organism-based. The settings on record: salmonella enterica subsp. enterica serovar typhimurium.

We go through 19 compounds from ChEMBL document CHEMBL2413059, “Novel quinoxaline 1,4-di-N-oxide derivatives as new potential antichagasic agents” (Eur J Med Chem, 2013).

The structures appear in SMILES notation.

By IC50 is commonly meant the point on the concentration scale where inhibition reaches its midpoint. Take `CCOC(=O)c1c(C(F)(F)F)[n+]([O-])c2cc(F)c(F)cc2[n+]1[O-]`: the Activity entry in the data set on Salmonella typhimurium [1] is listed as “Non-toxic”; in the data set on Salmonella typhimurium [2] it was “Toxic”. Further, the selectivity ratio in data set [3] came to 10. The half-maximal inhibitory concentration (IC50) is 4 µM in the data set on J774 and 0.4 µM with Trypanosoma cruzi [5]. In the data set with Trypanosoma cruzi [4], the “Ratio IC50” value is on record as 18. Besides, in the data set on Trypanosoma cruzi [6], the inhibition of growth at 25 µM amounted to 100%.
In the case of `CCOC(=O)c1c(C(F)(F)F)[n+]([O-])c2ccc(C(F)(F)F)cc2[n+]1[O-]`, the Activity entry in the data set with Salmonella typhimurium [7] and with Salmonella typhimurium [8] was “Non-toxic” throughout. The selectivity ratio in data set [3] came out at 4.2. The IC50 in the data set with J774 was found to be 4.2 µM; with Trypanosoma cruzi [5], 1 µM. The inhibition of growth at 25 µM with Trypanosoma cruzi [6] is 100%.
On to `COC(=O)c1c(C(F)(F)F)[n+]([O-])c2ccccc2[n+]1[O-]`, for which the Activity entry in the data set on Salmonella typhimurium [1] and with Salmonella typhimurium [2] was “Toxic” in each case. Further, in [3], the selectivity ratio was 7.3. Further, the IC50 with J774 amounted to 19 µM; with Trypanosoma cruzi [5], 2.6 µM. In the data set on Trypanosoma cruzi [6], the inhibition of growth at 25 µM came out at 100%.
On to `COC(=O)c1c(C(F)(F)F)[n+]([O-])c2ccc(OC)cc2[n+]1[O-]`, for which the Activity entry in the data set with Salmonella typhimurium [9] and in the data set with Salmonella typhimurium [10] was “Toxic” throughout. Moreover, the IC50 in the data set on Trypanosoma cruzi [5] came to 4.6 µM. In addition, the inhibition of growth at 25 µM with Trypanosoma cruzi [6] worked out at 86.6%.
For `COC(=O)c1c(C(F)(F)F)[n+]([O-])c2ccc(C)cc2[n+]1[O-]`, the Activity result with Salmonella typhimurium [1] and in the data set with Salmonella typhimurium [2] was “Toxic” each time. In addition, in [3], the selectivity ratio came to 0.3. The IC50 with J774 was 4 µM; in the data set on Trypanosoma cruzi [5] it was 13.7 µM. Moreover, the inhibition of growth at 25 µM in the data set on Trypanosoma cruzi [6] is 96.1%.
For the compound `COC(=O)c1c(C(F)(F)F)[n+]([O-])c2cc(C)c(C)cc2[n+]1[O-]`, the Activity entry in the data set on Salmonella typhimurium [11] and with Salmonella typhimurium [12] was “Toxic” throughout. The selectivity ratio in data set [3] came out at 0.8. The IC50 in the data set on J774 turned out to be 4 µM; in the data set with Trypanosoma cruzi [5] it was 5 µM. For the same compound, in the data set on Trypanosoma cruzi [6], the inhibition of growth at 25 µM was 91.6%.
Regarding `COC(=O)c1c(C(F)(F)F)[n+]([O-])c2ccc(Cl)cc2[n+]1[O-]`, the Activity entry in the data set with Salmonella typhimurium [13] is reported as “Non-toxic”; with Salmonella typhimurium [14], “Toxic”. The IC50 in the data set with Trypanosoma cruzi [5] was 1.8 µM. For the same compound, in the data set with Trypanosoma cruzi [6], the inhibition of growth at 25 µM was found to be 100%.
`COC(=O)c1c(C(F)(F)F)[n+]([O-])c2cc(Cl)c(Cl)cc2[n+]1[O-]`: the Activity result with Salmonella typhimurium [15] and with Salmonella typhimurium [16] was “Non-toxic” throughout. For the same compound, in [3], the selectivity ratio was less than 0.1. The figures for the half-maximal inhibitory concentration (IC50) in the data set on J774 and with Trypanosoma cruzi [5] were 0.5 µM and 10.8 µM, respectively. Moreover, the inhibition of growth at 25 µM in the data set with Trypanosoma cruzi [6] came out at 100%.
Consider `COC(=O)c1c(C(F)(F)F)[n+]([O-])c2ccc(F)cc2[n+]1[O-]`, for which the Activity entry in the data set on Salmonella typhimurium [9] was “Non-toxic”; in the data set with Salmonella typhimurium [10], “Toxic”. In data set [3], the selectivity ratio was determined as 0.7. In addition, the IC50 in the data set on J774 was determined as 2.5 µM; in the data set on Trypanosoma cruzi [5], 3.5 µM. Further, the inhibition of growth at 25 µM in the data set on Trypanosoma cruzi [6] turned out to be 100%.
`COC(=O)c1c(C(F)(F)F)[n+]([O-])c2cc(F)c(F)cc2[n+]1[O-]`: the Activity result is “Non-toxic” in the data set on Salmonella typhimurium [1] and “Toxic” with Salmonella typhimurium [2]. Besides, the IC50 in the data set on Trypanosoma cruzi [5] amounted to 1.5 µM. Also, the inhibition of growth at 25 µM in the data set with Trypanosoma cruzi [6] came to 100%.
As to `COC(=O)c1c(C(F)(F)F)[n+]([O-])c2ccc(C(F)(F)F)cc2[n+]1[O-]`, the Activity result in the data set on Salmonella typhimurium [1] and in the data set on Salmonella typhimurium [2] was “Non-toxic” in each case. The selectivity ratio in data set [3] is 0.8. In addition, the IC50 is 4 µM in the data set with J774 and 5 µM with Trypanosoma cruzi [5]. In addition, the inhibition of growth at 25 µM in the data set on Trypanosoma cruzi [6] worked out at 100%.
With `CCOC(=O)c1c(C(F)(F)F)[n+]([O-])c2ccccc2[n+]1[O-]`, the Activity result with Salmonella typhimurium [1] is reported as “Non-toxic”; in the data set with Salmonella typhimurium [2], “Toxic”. Besides, the selectivity ratio in [3] turned out to be 1. Also, the IC50 with J774 and with Trypanosoma cruzi [5] was 4 µM throughout. The inhibition of growth at 25 µM in the data set on Trypanosoma cruzi [6] is 100%.
Consider `CCOC(=O)c1c(C(F)(F)F)[n+]([O-])c2ccc(OC)cc2[n+]1[O-]`, for which the Activity result in the data set on Salmonella typhimurium [9] and in the data set on Salmonella typhimurium [10] was “Toxic” each time. Besides, the selectivity ratio in data set [3] was determined as 1.2. The results for the IC50 in the data set on J774 and with Trypanosoma cruzi [5] were 6 µM and 4.8 µM, respectively. The inhibition of growth at 25 µM with Trypanosoma cruzi [6] is 100%.
Regarding `CCOC(=O)c1c(C(F)(F)F)[n+]([O-])c2ccc(C)cc2[n+]1[O-]`, the results for the Activity result in the data set on Salmonella typhimurium [9] and in the data set with Salmonella typhimurium [10] were “Non-toxic” and “Toxic”, respectively. For the same compound, the selectivity ratio in data set [3] is 1.4. In addition, the IC50 was 7 µM with J774 and 4.8 µM in the data set with Trypanosoma cruzi [5]. In addition, the inhibition of growth at 25 µM with Trypanosoma cruzi [6] turned out to be 100%.
On to `CCOC(=O)c1c(C(F)(F)F)[n+]([O-])c2cc(C)c(C)cc2[n+]1[O-]`, for which the Activity result in the data set with Salmonella typhimurium [7] was “Non-toxic”; with Salmonella typhimurium [8], “Toxic”. Further, in data set [3], the selectivity ratio is 0.5. Also, the IC50 with J774 came out at 4 µM; in the data set on Trypanosoma cruzi [5], 7.6 µM. In the data set with Trypanosoma cruzi [6], the inhibition of growth at 25 µM was found to be 87.5%.
On to `CCOC(=O)c1c(C(F)(F)F)[n+]([O-])c2ccc(Cl)cc2[n+]1[O-]`, for which the figures for the Activity result with Salmonella typhimurium [1] and in the data set with Salmonella typhimurium [2] were “Non-toxic” and “Toxic”, respectively. For the same compound, the IC50 with Trypanosoma cruzi [5] was 1.8 µM. For the same compound, in the data set on Trypanosoma cruzi [6], the inhibition of growth at 25 µM was 100%.
As for `CCOC(=O)c1c(C(F)(F)F)[n+]([O-])c2cc(Cl)c(Cl)cc2[n+]1[O-]`, the Activity result in the data set with Salmonella typhimurium [1] and in the data set on Salmonella typhimurium [2] was “Non-toxic” in each case. In addition, the IC50 with Trypanosoma cruzi [5] stood at 2.9 µM. In addition, the inhibition of growth at 25 µM in the data set with Trypanosoma cruzi [6] was 100%.
In the case of `CCOC(=O)c1c(C(F)(F)F)[n+]([O-])c2ccc(F)cc2[n+]1[O-]`, the Activity entry in the data set on Salmonella typhimurium [1] was “Non-toxic”; with Salmonella typhimurium [2], “Toxic”. In addition, in [3], the selectivity ratio was found to be 0.1. For the same compound, the figures for the IC50 in the data set with J774 and with Trypanosoma cruzi [5] were 0.5 µM and 3.3 µM, respectively. Moreover, the inhibition of growth at 25 µM in the data set with Trypanosoma cruzi [6] was determined as 100%.
Regarding `CC1CS(=O)(=O)CCN1/N=C/c1ccc([N+](=O)[O-])o1` (configuration not stated) [NIFURTIMOX], in data set [3], the selectivity ratio came out at 41. In addition, the IC50 in the data set on J774 was 316 µM. In addition, the inhibition of growth at 25 µM in the data set on Trypanosoma cruzi [6] amounted to 100%.
